# From US20050107430A1, “Antimicrobial and antiviral compounds” (priority 2003, published 2005)
# “And” between values parts separate entries of the source, which are not always exact repeats. Equal values may be shown once.
# Key:
# [1] = tested on: various microorganisms; assay: Antimicrobial activity tests, various microorganisms
# [2] = tested on: E. coli ATCC 25922; assay: NCCLS MIC/MBC microdilution, E. coli; format: cell-based; conditions: plate EC
# Text: (§1) [BBL Mueller Hinton Broth].
# [3] = tested on: Enterococcus faecium; assay: NCCLS MIC/MBC microdilution, Enterococcus (vancomycin sensitive); format: cell-based; conditions: for MBC: read at 48 hr
# Text: as §1
# [4] = tested on: S. aureus; assay: NCCLS MIC/MBC microdilution, S. aureus patient isolates; format: cell-based, Staphylococcus aureus; conditions: for MBC: read at 48 hr
# Text: as §1
# [5] = tested on: Vancomycin resistant S. aureus ATCC700699 and 700788 (VRSA); assay: NCCLS MIC/MBC microdilution, vancomycin resistant S. aureus; format: cell-based, Staphylococcus aureus; conditions: for MBC: read at 48 hr
# Text: as §1
# [6] = tested on: Mycobacterium fortutium; assay: MIC, Mycobacterium fortutium; format: cell-based; conditions: for MIC, Mycobacterium fortutium: Table 3
# [7] = tested on: M. avium intracellularie; assay: MIC, M. avium intracellularie; format: cell-based, Mycobacterium avium intracellulare; conditions: Table 3
# [8] = tested on: Mycobacterium tuberculosis; conditions: Table 3
# [9] = tested on: BDF1′ mice; conditions: 30 mg/kg ip
# [10] = tested on: VRE (Vancomycin resistant Enterococci); assay: NCCLS MIC/MBC microdilution, VRE; conditions: for MIC, VRE enterococcus (E. faecalis): 24 h and 48 h same results; for MIC: plate D4, VRE patient isolate
# Experimental: (§2) Standard NCCLS (e.g., National Committee for Clinical Laboratory Standards) methods for determining MIC (e.g., minimum inhibitory concentration) and MBC (e.g., minimum bactericidal concentration) were used. 96 well micro-well plates were placed in a humid chamber and frozen at −70° C. [BBL Mueller Hinton Broth]. Drugs (e.g., antimicrobial compounds of the present invention) were added to a series of wells through 2 fold serial dilutions. 100 μl of a 2×10^−3 M solution of the respective Tx compounds was added to the first well in a series. 100 μl of the inoculum (e.g., microorganism) was added to the well. […] For example, the concentration in well 8 would be less than the concentration of the same drug in well 7. Inoculum (e.g., microorganism) that was added to the wells was prepared from 24 hour growth of an isolate on 5% sheep blood/Columbia agar plates. 5 to 10 representative colonies were then picked from the plates and added to saline and adjusted to 0.5 McFarland turbidity. Next the sample was diluted 1:100 in saline, such that 100 μl of the diluted sample contained approximately 1×10^5 microbes. 100 μl of the diluted sample was added to each well in a series of drug concentrations. Once the cells were added to the wells, the well plates were incubated at 35° C. without CO2 for 48 hrs and at this time the minimum bactericidal concentration was determined.
# (§3) The MIC of Tx-118, Tx-147, and Tx-197 for certain Staphylococcus aureus (MRSA), Pseudomonas aeruginosa, Stenotrophomonas maltophilia, and VRE Enterococcus faecalis was determined using standard NCCLS methods. The first well in each series of decreasing drug concentrations contained 1×10^−4 M of a drug. The drug was diluted by serial two fold dilutions through all 12 wells in a series. There was a final DMSO concentration of 2% in the first well and 1% in the second well, etc. Tests with Tx-118 and Tx-197 were performed in triplicate, and tests with Tx-147 were performed in duplicate.
# [11] = tested on: MRSA (oxacillin/methicillin resistant S. aureus); assay: NCCLS MIC/MBC microdilution, MRSA; conditions: for MIC, MRSA (methicillin resistant): Table 3, 24 h and 48 h same results
# Experimental: as §2, §3
# [12] = tested on: P. aeruginosa; assay: NCCLS MIC/MBC microdilution, P. aeruginosa; design: MIC: key to the marks not given beside the values; conditions: for MIC, P. aeruginosa: Table 3, P. aeroginosa is L13 from Table 2
# [13] = tested on: Stenotrophomonas maltophilia; assay: NCCLS MIC/MBC microdilution, S. maltophilia; conditions: for MIC, Stenotrophomonas maltophilia: 24 h and 48 h same results
# Experimental: as §2, §3
# [14] = tested on: human fibroblasts; assay: Toxicity study with human fibroblasts; format: cell-based
# [15] = plate E348, Enterococcus faecium patient isolate
# [16] = plate E502, Enterococcus faecium ATCC 502806
# [17] = plate E523, Enterococcus facium patient isolate
# [18] = plate S332, S aureus patient isolate
# [19] = plate S520, S aureus patient isolate penicillin resistant
# [20] = Table 3, 24 h and 48 h same results
# [21] = plate 699, VancoR S. aureus ATCC700699
# [22] = plate 788, VancoR S. aureus ATCC 700788
# [23] = Example 2, first well 1×10^−4 M
# [24] = plate K12, MRSA patient isolate
# [25] = plate 37, P. aeruginosa sensitive isolate
# [26] = plate ATCC, P. aeruginosa ATCC 27853
# [27] = plate L13, P. aeruginosaR (multi-resistant)
# [28] = plate C3, S. maltophilia patient isolate
# [29] = plate I10, S. maltophilia patient isolate
# [30] = plate J11, S. maltophilia patient isolate
smiles,measurement,setting,value
"O=C(CCC(=O)N1CCCCC1)Nc1cc2c3ccccc3c(Br)cc2c2ccccc12 [Tx-11, N-(12′-bromo, 6-chrysenyl)-4-(1′-piperidinyl)-butane-1,4-dicarboxiamide]",growth in wells (activity),[1]; Example 1 microbes,"+3 growth (e.g., no activity)"
CN1CCN(CCCCNc2cc3c4ccccc4c(NCCCCN4CCN(C)CC4)cc3c3ccccc23)CC1.Cl [Tx-147],MIC,[2],+++
same,MIC,[3]; [15],3 µg/mL
same,MBC,[3]; [15],6 µg/mL
same,MIC,[3]; [16],6 µg/mL
same,MBC,[3]; [16],12 µg/mL
same,MIC,[3]; [17],6 µg/mL
same,MBC,[3]; [17],12 µg/mL
same,MIC,[4]; [18],12/12 ug/ml
same,MBC,[4]; [18],12/12 ug/ml
same,MIC,[4]; [19],12/12 ug/ml
same,MBC,"[4]; plate S520, S aureus patient isolate",12/12 ug/ml
same,"MIC, VRSA (ATCC 700699)",[5]; [20],6 µg/mL
same,"MIC, VRSA (ATCC 700788)",[5]; [20],24 µg/mL
same,MIC,[5]; [21],6 µg/mL
same,MBC,[5]; [21],23 µg/mL
same,MIC,[5]; [22],24 µg/mL
same,MBC,[5]; [22],49 µg/mL
same,MIC for Mycobacterium fortutium,[6]; Example 2,0.0039 µg/mL
same,"MIC, Mycobacterium fortutium",[6],39 µg/mL
same,"MIC, M. avium intracellularie",[7],12 to 24 µg/mL
same,"MIC, Mycobacterium tuberculosis",[8],3 µg/mL
same,"animal studies (ip), mortality",[9],30 mg/kg (10-12% mort)
same,MIC for VRE,[10]; [23],0.0019 µg/mL
same,"MIC, VRE enterococcus (E. faecalis)",[10]; Table 3,12 µg/mL
same,"MIC, VRE enterococcus (vancomycin, Penicillin & aminoglycoside rest.)","[10]; Table 3, vancomycin, Penicillin & aminoglycoside resistant",19 µg/mL
same,bactericidal activity for VRE,"[10]; in words, Example 1",some bactericidal activity
same,MIC,[10],12 µg/mL
same,MIC for Staphylococcus aureus (MRSA),"[11]; Example 2, first well 1×10^−4 M, two fold dilutions",0.0039 µg/mL
same,"concentration that was bactericidal, Staphylococcus aureus (MRSA)","[11]; Example 2, wells 1 and 2, hydrochloride",0.0078 µg/mL and 0.0039 µg/mL
same,"MIC, MRSA (methicillin resistant)",[11],24 to 49 µg/mL
same,bactericidal activity against Staphylococcus aureus (MRSA),"[11]; in words, Example 1",bactericidal activity
same,MIC,"[11]; plate A1, MRSA patient isolate",24 µg/mL
same,MIC,"[11]; plate B2, MRSA patient isolate",48 µg/mL
same,MIC,"[11]; plate E5, MRSA patient isolate",24 µg/mL
same,MIC,"[11]; plate F6, MRSA patient isolate",24 µg/mL
same,MIC,"[11]; plate G7, MRSA patient isolate",24 µg/mL
same,MIC,"[11]; plate H9, MRSA patient isolate",48 µg/mL
same,MIC,[11]; [24],48 µg/mL
same,"MIC, P. aeruginosa",[12],No activity
same,MIC,[12]; [25],+++
same,MIC,[12]; [26],+++
same,MIC,[12]; [27],+++
same,MIC for Stenotrophomonas maltophilia,[13]; [23],0.0078 µg/mL
same,"MIC, Stenotrophomonas maltophilia",[13]; Table 3,98 to 785 µg/mL
same,"MIC, Stenotrophomonas maltophilia (resist. various drugs)","[13]; Table 3, strain resist. various drugs",78 µg/mL
same,MIC,[13]; [28],96 µg/mL
same,MIC,[13]; [29],784 µg/mL
same,MIC,[13]; [30],784 µg/mL
"CN1CCN(C(=O)CCC(=O)Nc2ccc3c(ccc4c5ccccc5ccc34)c2)CC1 [Tx-2, N-(2′-chrysenyl)-4-(4′N-methyl-piperazinyl)-butane-1,4-dicarboxiamide]","MIC, M. avium intracellularie",[7],15.6 µg/mL
same,"MIC, Mycobacterium tuberculosis",[8],1 µg/mL
"CN1CCN(C(=O)CCC(=O)Nc2cc3c(c4ccccc24)-c2ccc4ccccc4c2C3)CC1 [Tx-37, N-[11′-(13′H-Dibenzo[a,g]-fluorenyl)]-4-(4′N methyl-piperazinyl)-butane-1,4-dicarboxiamide]",MIC,[2],+++
same,MIC,[3]; [15],+++
same,MIC,[3]; [16],+++
same,MIC,[3]; [17],+++
same,MIC,[4]; [18],+++
same,MIC,[4]; [19],+++
same,Toxicity/human fibroblasts (IC50),[14],5 µg/mL
same,"animal studies (ip), mortality",[9],30 mg/kg (no mortality)
same,"MIC, VRE enterococcus (E. faecalis)",[10]; Table 3,58 µg/mL
same,MIC,[10],58 µg/mL
same,"MIC, MRSA (methicillin resistant)",[11],1.8 to 7 µg/mL
same,MIC,"[11]; plate A1, MRSA patient isolate",7.2 µg/mL
same,MIC,"[11]; plate B2, MRSA patient isolate",3.6 µg/mL
same,MIC,"[11]; plate E5, MRSA patient isolate",3.6 µg/mL
same,MIC,"[11]; plate F6, MRSA patient isolate",1.8 µg/mL
same,MIC,"[11]; plate G7, MRSA patient isolate",3.6 µg/mL
same,MIC,"[11]; plate H9, MRSA patient isolate",7.2 µg/mL
same,MIC,[11]; [24],7.2 µg/mL
same,"MIC, P. aeruginosa",[12],No activity
same,MIC,[12]; [25],+++
same,MIC,[12]; [26],+++
same,MIC,[12]; [27],+++
same,"MIC, Stenotrophomonas maltophilia",[13]; Table 3,No activity
same,MIC,[13]; [28],+++
same,MIC,[13]; [29],+++
same,MIC,[13]; [30],+++
"O=C1[C@@H](O)[C@H](c2ccccc2)N1c1cc2c3ccccc3ccc2c2ccccc12 (relative stereo) [Tx-197, Trans-1-N-(6′-chrysenyl)-3-hydroxy-4-phenyl-2-azetidinone]","MIC, Mycobacterium fortutium",[6],No activity
same,"MIC, VRE enterococcus (E. faecalis)",[10]; Table 3,No activity
same,"MIC, MRSA (methicillin resistant)",[11],No activity
same,"MIC, P. aeruginosa",[12],No activity
same,"MIC, Stenotrophomonas maltophilia",[13]; Table 3,No activity
Cl.c1ccc2c(c1)c(NCCCCN1CCCCC1)cc1c3ccccc3c(NCCCCN3CCCCC3)cc21 [Tx-225],antimicrobial activity,[1]; in words,activity similar to Tx-84
"O=C(CCC(=O)N1CCCCC1)Nc1cc2c3ccccc3ccc2c2ccccc12 [Tx-3, N-(6′-chrysenyl)-4-(1′-piperidinyl)-butane-1-4-dicarboxiamide]","MIC, M. avium intracellularie",[7],.98 µg/mL
same,"MIC, Mycobacterium tuberculosis",[8],.125 µg/mL
"CN1CCN(C(=O)CCC(=O)Nc2cc3c4ccccc4ccc3c3ccccc23)CC1 [Tx-1, N-(6′-chrysenyl)-4-(4′N methyl-piperazinyl)-butane-1,4-dicarboxiamide]","MIC, M. avium intracellularie",[7],46 µg/mL
same,"MIC, Mycobacterium tuberculosis",[8],2.9 µg/mL
